Experimental data: patent US20170239212A1, “[…] AND USE THEREOF AS ANTIVIRAL AGENTS” (priority 2014, published 2017)

Legend:
[1] = molecular target: mouse recombinant isozyme PKCα (Mus musculus, UniProt P20444); assay: [3H]PDBu binding assay (polyethylene glycol precipitation); settings: calcium and phosphatidylserine present, 2 nM [3H]PDBu, read-out: Ki (inhibitory dissociation constant, displacement of [3H]PDBu)
Description: [^3H]PDBu Binding Assay. The inhibitory dissociation constant (Ki) of each bryologue ligand was determined by the ability of the ligand to displace bound [20-^3H]phorbol 12,13-dibutyrate (PDBu) from mouse recombinant isozyme PKCα in the presence of calcium and phosphatidylserine, using a polyethylene glycol precipitation assay developed in our laboratory as described elsewhere. Briefly, the assay mixture (250 μL) contained 50 mM Tris-HCl (pH 7.4 at room temperature), 100 μg/mL phosphatidylserine, 0.1 mM Ca^2+, 4 mg/mL bovine immunoglobulin G and 0.003% Tx-100, 2 nM [^3H]PDBu and various concentrations of the competing ligand. […] The radioactivity was determined by scintillation counting, using Cytoscint (ICN, Costa Mesa, Calif.). Specific binding was calculated as the difference between total and nonspecific PDBu binding. The Inhibitory dissociation constants (Ki) were calculated using the method previously described by Blumberg and Lewin.
The inhibitory dissociation constant (Ki) of MERLE 28 was determined by the ability of the ligand to displace bound [20-^3H]phorbol 12,13-dibutyrate (PDBu) from mouse recombinant isozyme PKCα in the presence of calcium and phosphatidylserine, using a polyethylene glycol precipitation assay previously described by Blumberg and Lewin. […] The radioactivity was determined by scintillation counting, using Cytoscint (ICN, Costa Mesa, Calif.). […]

[2] = test system: HIV long terminal repeat (LTR) promoter; assay: HOS LTR stimulation assay (luciferase reporter); type: cell-based; settings: HOS cells; for Max signal (% of control): LTR-luciferase signal; for Conc (uM) at Max: concentration at maximal LTR-luciferase signal; for EC50: LTR-luciferase, incubated 24, 48 and 72 hours (time of the listed values not stated), read-out: EC50
Description: In the assay, non T cell derived human osteosarcoma (HOS) cells are transfected with a luciferase reporter under control of an HIV long terminal repeat (LTR) promoter. Compounds that stimulate the HIV LTR promoter will produce luciferase in a dose dependent manner.
(§1) Specifically, EC50 and CC50 values were determined in parallel using 10 concentrations of compound from 3 fold serial dilutions starting a 5 uM as the highest concentration. Cells and media were added to compounds with a final concentration of DMSO of 1% and incubated at 37° C., 5% CO2 for 24, 48 and 72 hours. EC50 was measured by induced luciferase activity detected by the use of the Steady-Glo® Luciferase reagent (PROMEGA) with an EnVision (Perkin-Elmer) plate reader. CC50 was determined by the dose dependent knock down of cellular ATP detected by the use of CellTiter-Glo® Luminescent Cell Viability reagent (PROMEGA) with an EnVision (Perkin-Elmer) plate reader.
The error bars represent the average and the standard error of the mean of at least three independent experiments.

[3] = test system: human osteosarcoma (HOS) cells; assay: HOS cell viability (CellTiter-Glo, cellular ATP); type: cell-based; design: unit not given here; settings: knock down of cellular ATP
Description: as §1

[4] = test system: HIV long terminal repeat (LTR) promoter; assay: cells; type: cell-based; settings: Jurkat cells; for EC50: LTR-luciferase, incubated 24, 48 and 72 hours (time of the listed values not stated)
Description: as §1, with “The compounds were also tested in the T cell derived Jurkat cell line transfected with a luciferase reporter under control of an HIV long terminal repeat (LTR) promoter. Specifically,” for “Specifically,”

in vitro = type: cell-based; settings: human; Jurkat cells, knock down of cellular ATP
Description: as §1, with “The compounds were also tested in the T cell derived Jurkat cell line transfected with a luciferase reporter under control of an HIV long terminal repeat (LTR) promoter. Specifically,” for “Specifically,”

Jurkat cell line = assay: in vitro; type: cell-based; settings: Jurkat cells, knock down of cellular ATP
Description: as §1, with “The compounds were also tested in the T cell derived Jurkat cell line transfected with a luciferase reporter under control of an HIV long terminal repeat (LTR) promoter. Specifically,” for “Specifically,”

Row | SMILES | Ki [1] | Max signal (% of control) [2] | Conc (uM) at Max [2] | EC50 ([2]; Human immunodeficiency virus 1) | CCEC50 [3] | EC50 ([4]; Human immunodeficiency virus 1) | selectivity ratio ([4]; human, ratio of the CC50 to the EC50) | CC50 (in vitro) | EC50 [2] | EC50 [4] | Selectivity (CC50:EC50) ([4]; ratio of the CC50 to the EC50) | CC50 (Jurkat cell line)
1 | C=C1C[C@H]2C[C@H]3C[C@@H](OC(C)=O)C[C@@H](C[C@@H](O)CC(=O)O[C@@H]([C@@H](C)O)C[C@@H]4C/C(=C\C(=O)OC)[C@H](OC(=O)CCCCCCC)[C@@](O)(O4)C(C)(C)/C=C/[C@@H](C1)O2)O3 [MERLE 27] | 3 ± 0.06 nM | – | – | – | – | – | – | – | – | – | – | –
2 | CC(=O)O[C@@]12C[C@@H](C)[C@@]3(O)[C@@H](C=C(CO)C[C@]4(O)C(=O)C(C)=C[C@@H]34)[C@@H]1C2(C)C [Prostratin] | – | 274 % of control | 27.78 µM | 1080 nM | >50 | 130 nM | 2.8 | 370 nM | – | – | – | –
3 | COC(=O)/C=C1/C[C@H]2C[C@]3(O)O[C@H](C[C@@H](O)CC(=O)O[C@@H]([C@@H](C)O)C[C@@H]4C/C(=C\C(=O)OC)[C@H](OC(C)=O)[C@@](O)(O4)C(C)(C)/C=C/[C@@H](C1)O2)C[C@H](OC(C)=O)C3(C)C [Bryostatin 7] | – | 250 % of control | 0.07 µM | – | 6.24 | – | – | – | 6 nM | 1 nM | 4.6 | 4.6 nM
